The results in this text go back to PMC8050276, “Estradiol analogs attenuate autophagy, cell migration and invasion by direct and selective inhibition of TRPML1, independent of estrogen receptors” (Scientific Reports, 2021).

Common to all, as to assay type: cell-based
One test has as its target T1, human ERα (Homo sapiens, UniProt P03372).
T1 construct: host or cells: Saccharomyces cerevisiae
The test can be described thus: Yeast estrogen receptor assay (YES-assay), Saccharomyces cerevisiae transfected with human ERα, lacZ reporter. Particulars: 0.01-100 µM, 48 h. The protocol:
The yeast estrogen receptor assay (YES-assay) was provided by Dr. J.P. Sumpter (Brunel University, Uxbridge, UK; Routledge & Sumpter, 1996) and was used to determine the relative transactivation activity of the human ERα in response to test substances as previously described. Briefly, Saccharomyces cerevisiae stably transfected with a human ERα construct and an estrogen responsive element fused to the reporter gene lacZ encoding for β-galactosidase were treated with the test substances for 48 h. The β-galactosidase enzymatic activity was measured in a colorimetric assay using the substrate chlorophenol red β-D-galactopyranoside (Roche Diagnostics, Mannheim Germany). Formation of chlorophenol red was measured at 540 nm. For the test, all compounds were diluted in DMSO. 17β-estradiol (10 nM; Sigma, Deisenhofen, Germany) served as positive control and DMSO was used as vehicle control. All compounds, were dose dependently tested in a concentration range of 0.01–100 µM, using technical quadruplicates and biological triplicates.

The target in the next test is T2, hTRPML3-YFP (Homo sapiens, UniProt Q8TDD5).
T2 construct: expressed in transfected cells
Description: Fluo-4 Ca2+ influx assay, HEK293 stably expressing hTRPML3-YFP, activated with ML-SA1. The protocol: To identify inhibitors of TRPML1 and TRPML3, the Spectrum Collection compound library (MS Discoveries; 2000 compounds) and additional 430 bioactive compounds were screened. To this end, fluorometric Ca^2+ influx assays were performed by using the calcium dye Fluo-4/AM (Invitrogen, Thermo Fisher Scientific, Waltham, MA, USA) and a custom-made fluorescence imaging plate reader built into a robotic liquid handling station (Freedom Evo 150, Tecan, Männedorf, Switzerland). All measurements were done in a HEPES buffered solution (HBS), containing 132 mM NaCl, 6 mM KCl, 1 mM MgCl2, 1 mM CaCl2, 5.5 mM D-glucose, 10 mM HEPES, pH 7.4. Screening compounds dissolved in DMSO (10 mM) were prediluted in 150 mM NaCl, 20 mM HEPES, pH 7.4, to a concentration of 200 µM. For primary screens, HEK293 stably expressing plasma membrane-targeted TRPML1 or TRPML3 were trypsinized and resuspended in cell culture medium supplemented with 4 µM Fluo-4/AM. After incubation at 37 °C for 30 min, the cell suspension was briefly centrifuged resuspended in HBS, and dispensed into black pigmented, clear-bottom 384-well microwell plates (Greiner μClear, Frickenhausen, Germany). Plates were placed into the FLIPR and fluorescence signals (excitation 470 nm, emission 515 nm) were recorded with a Zyla 5.5 camera (Andor, Belfast, UK) and the μManager software like previously described. In a first video, compound libraries were successively added to the cells with the Tecan 96-tip multichannel arm to a final concentration of 20 µM to map unspecific effects like autofluorescence or toxicity. In a second step the agonist ML-SA1 was pipetted in each well and fluorescence signals were recorded for 10 min. Analyses were done by calculating fluorescence intensities for each well and background areas with ImageJ (National Institutes of Health, Bethesda, MD, USA). Finally, the background was subtracted and the fluorescence intensities were normalized to initial intensities (F/F0). Concentration response curves were generated by the same procedure but compounds were manually prediluted in 96-well plates containing HBS, now supplemented with 0.1% bovine serum albumin. Here data was fitted to a four-parameter Hill equation to obtain Imin, Imax, IC50), and the Hill coefficient n.

The target in the next test is T3, hTPC2L11A/L12A-RFP (Homo sapiens, UniProt Q8NHX9, L11A/L12A).
T3 construct: expressed in transfected cells
Description: Single cell Fura-2 calcium imaging, HEK293 stably expressing hTPC2L11A/L12A-RFP. Particulars: compound alone or 10 µM after TPC2-A1-N (10 µM). The protocol:
Single cell Ca^2+ imaging experiments were performed using Fura-2 as previously described. HEK293 cells stably expressing hTRPML1∆NC-YFP, hTRPML2-YFP, hTPPML3-YFP or hTPC2L11A/L12A-RFP (22, 24) were cultured at 37 °C with 5% of CO2 in Dulbecco’s modified Eagle medium (Thermo Fisher), supplemented with 10% fetal bovine serum, 100 U/mL penicillin, and 0.1 mg/mL streptomycin. Cells were plated onto poly-L-lysine (sigma)-coated glass coverslips and grown for 2–3 days. For Ca^2+ imaging experiments cells were loaded for 1 h at room temperature with Fura-2 AM (4.0 µM) and 0.005% (v/v) pluronic acid (both from Thermo Fisher) in HEPES-buffered solution (HBS) comprising 138 mM NaCl, 6 mM KCl, 2 mM MgCl2, 2 mM CaCl2, 10 mM HEPES, and 5.5 mM D-glucose (adjusted to pH 7.4 with NaOH). After loading, cells were washed with HBS and mounted in an imaging chamber. All recordings were performed in HBS. Ca^2+ imaging was performed using a Leica DMi8 live cell microscope. Fura-2 was excited at 340 nm/380 nm. Emitted fluorescence was captured using 515 nm long-pass filter. Compounds were pre diluted in DMSO and stored as 10 mM stock solutions at − 20 °C, not exceeding three months. Working solutions were prepared directly before using by dilution with HBS.

Setting [1] is: Fluo-4, 5 µM ML-SA1, Table S1, read-out: TRPML3 IC50.

“Also recorded” adds a separate entry of the source. Read-outs that look alike come from different tables or passages of the source.

T1 sequence (P03372 whole entry): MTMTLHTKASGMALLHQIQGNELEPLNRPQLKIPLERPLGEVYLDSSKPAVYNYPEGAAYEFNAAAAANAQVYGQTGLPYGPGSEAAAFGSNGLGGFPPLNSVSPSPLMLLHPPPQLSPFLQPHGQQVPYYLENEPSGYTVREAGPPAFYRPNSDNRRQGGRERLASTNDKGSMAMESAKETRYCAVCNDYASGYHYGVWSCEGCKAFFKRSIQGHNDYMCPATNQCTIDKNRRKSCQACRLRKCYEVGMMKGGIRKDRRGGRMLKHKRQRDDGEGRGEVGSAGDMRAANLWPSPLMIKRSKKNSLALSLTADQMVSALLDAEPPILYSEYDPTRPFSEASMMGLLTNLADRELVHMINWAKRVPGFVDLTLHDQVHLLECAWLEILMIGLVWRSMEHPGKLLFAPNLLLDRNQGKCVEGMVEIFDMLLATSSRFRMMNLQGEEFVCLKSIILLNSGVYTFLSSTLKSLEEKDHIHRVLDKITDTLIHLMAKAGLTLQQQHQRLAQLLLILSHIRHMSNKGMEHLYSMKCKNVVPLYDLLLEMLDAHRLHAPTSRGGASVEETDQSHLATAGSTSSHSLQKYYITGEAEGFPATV
T2 sequence (Q8TDD5 whole entry): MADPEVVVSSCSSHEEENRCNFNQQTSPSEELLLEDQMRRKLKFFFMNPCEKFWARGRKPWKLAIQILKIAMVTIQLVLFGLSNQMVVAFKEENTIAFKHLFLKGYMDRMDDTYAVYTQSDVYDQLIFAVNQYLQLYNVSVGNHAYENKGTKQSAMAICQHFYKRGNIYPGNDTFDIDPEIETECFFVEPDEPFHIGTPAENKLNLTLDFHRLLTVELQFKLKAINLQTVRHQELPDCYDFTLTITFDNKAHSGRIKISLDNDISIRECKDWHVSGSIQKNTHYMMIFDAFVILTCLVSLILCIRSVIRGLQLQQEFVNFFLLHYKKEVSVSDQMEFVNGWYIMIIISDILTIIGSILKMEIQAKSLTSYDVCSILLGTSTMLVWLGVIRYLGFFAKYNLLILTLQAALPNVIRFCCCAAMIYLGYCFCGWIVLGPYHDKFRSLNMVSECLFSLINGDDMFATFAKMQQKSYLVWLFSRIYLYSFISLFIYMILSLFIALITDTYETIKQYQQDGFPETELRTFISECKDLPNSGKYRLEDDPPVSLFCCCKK
T3 sequence (Q8NHX9 whole entry L11A/L12A): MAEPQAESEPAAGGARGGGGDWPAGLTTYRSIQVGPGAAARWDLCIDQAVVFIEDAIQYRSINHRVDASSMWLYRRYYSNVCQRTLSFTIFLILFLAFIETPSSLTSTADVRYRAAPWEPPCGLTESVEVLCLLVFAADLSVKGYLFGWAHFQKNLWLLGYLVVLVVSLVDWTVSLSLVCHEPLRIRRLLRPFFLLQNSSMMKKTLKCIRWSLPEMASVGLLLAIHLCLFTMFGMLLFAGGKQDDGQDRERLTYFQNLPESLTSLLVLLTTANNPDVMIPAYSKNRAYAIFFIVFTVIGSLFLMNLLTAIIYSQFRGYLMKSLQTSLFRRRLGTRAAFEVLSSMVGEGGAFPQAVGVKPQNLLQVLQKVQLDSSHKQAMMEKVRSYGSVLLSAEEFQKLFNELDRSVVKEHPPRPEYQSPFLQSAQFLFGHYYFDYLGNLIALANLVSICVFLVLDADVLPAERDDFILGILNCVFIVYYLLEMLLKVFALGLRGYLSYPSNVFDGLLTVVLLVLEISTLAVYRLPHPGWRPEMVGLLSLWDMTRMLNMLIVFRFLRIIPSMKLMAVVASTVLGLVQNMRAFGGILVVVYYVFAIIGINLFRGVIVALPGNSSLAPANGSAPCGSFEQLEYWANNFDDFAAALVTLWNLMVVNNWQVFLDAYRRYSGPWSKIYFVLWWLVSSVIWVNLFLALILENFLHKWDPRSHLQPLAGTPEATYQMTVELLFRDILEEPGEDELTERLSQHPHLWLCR

For the compound `COc1ccc2c(c1)CC[C@@H]1[C@@H]2CC[C@]2(C)[C@@H](O)CC[C@@H]12` [EDME, 17β-estradiol methyl ether], the “effect/efficacy at ERα” value on human ERα is reported as “comparably strong effects”. Moreover, the IC50 – broadly, the point on the concentration scale where inhibition reaches its midpoint – against hTRPML3-YFP is 19.5 µM.

In the case of `C=Cc1ccc2c(c1)CC[C@@H]1[C@@H]2CC[C@]2(C)[C@@H](O)CC[C@@H]12` [PRU-10], the “effect/efficacy at ERα” value at human ERα is listed as “relatively low efficacy; also recorded: weakest effects”. Moreover, the IC50 on hTRPML3-YFP (setting [1]) is 15.8 µM. In addition, the “effect on hTPC2, Fura-2” value on hTPC2L11A/L12A-RFP is “Neither an activating nor a blocking effect”.

Consider `CC(=O)c1ccc2c(c1)CC[C@@H]1[C@@H]2CC[C@]2(C)[C@@H](O)CC[C@@H]12` [PRU-12], for which the “effect/efficacy at ERα” value on human ERα is “relatively low efficacy; also recorded: weakest effects”. Further, the IC50 at hTRPML3-YFP (setting [1]) came out at 14.1 µM. In addition, the “effect on hTPC2, Fura-2” value at hTPC2L11A/L12A-RFP is on record as “Neither an activating nor a blocking effect”.
